Laboratory results reported in US11261211B2, “19-NOR neuroactive steroids and methods of use thereof” (Sage Therapeutics, Inc., priority 2013, dated 2022).

The compounds below were run against α1β2γ2 GABAA receptor (Homo sapiens (Human), UniProt P14867+P47870) (assay: Patch clamp electrophysiology of recombinant α1β2γ2 GABAA receptors in LTK cells). Details: 10 μM compound, Qpatch, Ltk cells, GABA EC20 2 μM.
Format: cell-based
Experimental: Cellular electrophysiology is used to measure the pharmacological properties of our GABAA receptor modulators in heterologous cell systems. Each compound is tested for its ability to affect GABA mediated currents at a submaximal agonist dose (GABA EC20=2 μM). LTK cells are stably transfected with the α1β2γ2 subunits of the GABA receptor and CHO cells are transiently transfected with the α4β3δ subunits via the Lipofecatamine method. Cells were passaged at a confluence of about 50-80% and then seeded onto 35 mm sterile culture dishes containing 2 ml culture complete medium without antibiotics or antimycotics. Confluent clusters of cells are electrically coupled (Pritchett et al., 1988). Because responses in distant cells are not adequately voltage clamped and because of uncertainties about the extent of coupling (Verdoorn et al., 1990), cells were cultivated at a density that enables the recording of single cells (without visible connections to other cells).
Whole cell currents were measured with HEKA EPC-10 amplifiers using PatchMaster software or by using the high throughput QPatch platform (Sophion). Bath solution for all experiments contained (in mM): NaCl 137 mM, KCl 4 mM, CaCl2 1.8 mM, MgCl2 1 mM, HEPES 10 mM, D-Glucose 10 mM, pH (NaOH) 7.4. In some cases 0.005% cremophor was also added. Intracellular (pipette) solution contained: KCl 130 mM, MgCl2 1 mM, Mg-ATP 5 mM, HEPES 10 mM, EGTA 5 mM, pH 7.2. During experiments, cells and solutions were maintained at room temperature (19° C.-30° C.). For manual patch clamp recordings, cell culture dishes were placed on the dish holder of the microscope and continuously perfused (1 ml/min) with bath solution. After formation of a Gigaohm seal between the patch electrodes and the cell (pipette resistance range: 2.5 MΩ-6.0 MΩ; seal resistance range: >1 GΩ) the cell membrane across the pipette tip was ruptured to assure electrical access to the cell interior (whole-cell patch-configuration). For experiments using the QPatch system, cells were transferred as suspension to the QPatch system in the bath solution and automated whole cell recordings were performed.
Cells were voltage clamped at a holding potential of −80 mV. For the analysis of test articles, GABA receptors were stimulated by 2 μM GABA after sequential pre-incubation of increasing concentrations of the test article. Pre-incubation duration was 30 s and the duration of the GABA stimulus was 2 s. Test articles were dissolved in DMSO to form stock solutions (10 mM). Test articles were diluted to 0.01, 0.1, 1, and 10 μM in bath solution. All concentrations of test articles were tested on each cell. The relative percentage potentiation was defined as the peak amplitude in response to GABA EC20 in the presence of the test article divided by the peak amplitude in response to GABA EC20 alone, multiplied by 100.

Row | SMILES | α1β2γ2 GABA Qpatch in Ltk (Efficacy at 10 μm)
1 | C[C@@]1(O)CC[C@H]2[C@H](CC[C@@H]3[C@@H]2CC[C@]2(C)[C@@H](C(=O)Cn4ncc5ccncc54)CC[C@@H]32)C1 [SA-21] | B (“B” indicates an efficacy value of >100-500%)
2 | C[C@@]1(O)CC[C@H]2[C@H](CC[C@@H]3[C@@H]2CC[C@]2(C)[C@@H](C(=O)Cn4ncc5ccccc54)CC[C@@H]32)C1 [SA-5] | C (“C” indicates an efficacy value of >500%)
3 | C[C@@]1(O)CC[C@H]2[C@H](CC[C@@H]3[C@@H]2CC[C@]2(C)[C@@H](C(=O)Cn4cc5cnccc5n4)CC[C@@H]32)C1 [SA-10] | C (“C” indicates an efficacy value of >500%)
4 | C[C@@]1(O)CC[C@H]2[C@H](CC[C@@H]3[C@@H]2CC[C@]2(C)[C@@H](C(=O)Cn4ncc5ncccc54)CC[C@@H]32)C1 [SA-3] | C (“C” indicates an efficacy value of >500%)

Same assay, conditions: LTK, 10 μM compound, Qpatch, Ltk cells, GABA EC20 2 μM; read-out: α1β2γ2 GABA Qpatch in Ltk (Efficacy at 10 μm)

Row | SMILES | activity at 10 µM [%]
5 | C[C@]12CC[C@H]3[C@@H](CC[C@@H]4C[C@@](O)(CF)CC[C@@H]43)[C@@H]1CC[C@@H]2C(=O)Cn1ncc2ncccc21 [SA-84] | 100 to 500
6 | C[C@]12CC[C@H]3[C@@H](CC[C@@H]4C[C@@](O)(CF)CC[C@@H]43)[C@@H]1CC[C@@H]2C(=O)Cn1cc2ccncc2n1 [SA-85] | > 500
7 | C[C@@]1(O)CC[C@H]2[C@H](CC[C@@H]3[C@@H]2CC[C@]2(C)[C@@H](C(=O)Cn4nnc5ccc(Cl)cc54)CC[C@@H]32)C1 [SA-39] | 100 to 500
8 | C[C@@]1(O)CC[C@H]2[C@H](CC[C@@H]3[C@@H]2CC[C@]2(C)[C@@H](C(=O)Cn4nnc5cc(Cl)ccc54)CC[C@@H]32)C1 [SA-40] | 100 to 500
9 | C[C@]12CC[C@H]3[C@@H](CC[C@@H]4C[C@@](O)(C(F)F)CC[C@@H]43)[C@@H]1CC[C@@H]2C(=O)Cn1nc2ccccc2n1 [SA-92] | 100 to 500
10 | C[C@@]1(O)CC[C@H]2[C@H](CC[C@@H]3[C@@H]2CC[C@]2(C)[C@@H](C(=O)Cn4nnc5ccccc54)CC[C@@H]32)C1 [SA-1] | > 500
11 | C[C@@]1(O)CC[C@H]2[C@H](CC[C@@H]3[C@@H]2CC[C@]2(C)[C@@H](C(=O)Cn4nc5ccc(OC(F)(F)F)cc5n4)CC[C@@H]32)C1 [SA-72] | > 500
12 | Cc1cccc2c1nnn2CC(=O)[C@H]1CC[C@H]2[C@@H]3CC[C@@H]4C[C@](C)(O)CC[C@@H]4[C@H]3CC[C@]12C [SA-67] | > 500
13 | COC[C@@]1(O)CC[C@H]2[C@H](CC[C@@H]3[C@@H]2CC[C@]2(C)[C@@H](C(=O)Cn4nc5ccc(F)cc5n4)CC[C@@H]32)C1 [SA-122] | 100 to 500
14 | C[C@]12CC[C@H]3[C@@H](CC[C@H]4C[C@@](O)(CF)CC[C@@H]43)[C@@H]1CC[C@@H]2C(=O)Cn1ncc2ccncc21 [SB-19] | 100 to 500
15 | CCOC[C@@]1(O)CC[C@H]2[C@@H](CC[C@@H]3[C@@H]2CC[C@]2(C)[C@@H](C(=O)Cn4nc5ccncc5n4)CC[C@@H]32)C1 [SB-59] | 100 to 500
16 | Cc1c2ccccc2nn1CC(=O)[C@H]1CC[C@H]2[C@@H]3CC[C@@H]4C[C@](C)(O)CC[C@@H]4[C@H]3CC[C@]12C [SA-46] | > 500
17 | C[C@]12CC[C@H]3[C@@H](CC[C@H]4C[C@@](O)(CF)CC[C@@H]43)[C@@H]1CC[C@@H]2C(=O)Cn1nnc2cnccc21 [SB-14] | 10 to 100
18 | CC[C@@]1(O)CC[C@H]2[C@H](CC[C@@H]3[C@@H]2CC[C@]2(C)[C@@H](C(=O)Cn4nnc5ccncc54)CC[C@@H]32)C1 [SA-113] | 100 to 500
19 | C[C@@]1(O)CC[C@H]2[C@@H](CC[C@@H]3[C@@H]2CC[C@]2(C)[C@@H](C(=O)Cn4nc5ccccc5n4)CC[C@@H]32)C1 [SB-2] | > 500
20 | C[C@@]1(O)CC[C@H]2[C@H](CC[C@@H]3[C@@H]2CC[C@]2(C)[C@@H](C(=O)Cn4ncc5ncc(Cl)cc54)CC[C@@H]32)C1 [SA-27] | > 500
21 | C[C@@]1(O)CC[C@H]2[C@@H](CC[C@@H]3[C@@H]2CC[C@]2(C)[C@@H](C(=O)Cn4nnc5ccccc54)CC[C@@H]32)C1 [SB-1] | 100 to 500
22 | COC[C@@]1(O)CC[C@H]2[C@@H](CC[C@@H]3[C@@H]2CC[C@]2(C)[C@@H](C(=O)Cn4nc5ccncc5n4)CC[C@@H]32)C1 [SB-44] | > 500

Row | SMILES | activity at 10 µM [%]
23 | C[C@@]1(O)CC[C@H]2[C@H](CC[C@@H]3[C@@H]2CC[C@]2(C)[C@@H](C(=O)Cn4ncc5ccc(F)cc54)CC[C@@H]32)C1 [SA-23] | > 500
24 | C[C@@]1(O)CC[C@H]2[C@H](CC[C@@H]3[C@@H]2CC[C@]2(C)[C@@H](C(=O)Cn4nnc5c(F)cccc54)CC[C@@H]32)C1 [SA-64] | 100 to 500
25 | CC[C@@]1(O)CC[C@H]2[C@@H](CC[C@@H]3[C@@H]2CC[C@]2(C)[C@@H](C(=O)Cn4nc5ccccc5n4)CC[C@@H]32)C1 [SB-36] | 100 to 500
26 | CCOC[C@@]1(O)CC[C@H]2[C@@H](CC[C@@H]3[C@@H]2CC[C@]2(C)[C@@H](C(=O)Cn4cc5ccncc5n4)CC[C@@H]32)C1 [SB-57] | 100 to 500
27 | CC[C@@]1(O)CC[C@H]2[C@@H](CC[C@@H]3[C@@H]2CC[C@]2(C)[C@@H](C(=O)Cn4ncc5ncccc54)CC[C@@H]32)C1 [SB-30] | 100 to 500
28 | Cc1nn(CC(=O)[C@H]2CC[C@H]3[C@@H]4CC[C@@H]5C[C@](C)(O)CC[C@@H]5[C@H]4CC[C@]23C)c2ccccc12 [SA-45] | > 500
29 | C[C@@]1(O)CC[C@H]2[C@H](CC[C@@H]3[C@@H]2CC[C@]2(C)[C@@H](C(=O)Cn4nc5ccccc5c4O)CC[C@@H]32)C1 [SA-54] | > 500
30 | CCOC[C@@]1(O)CC[C@H]2[C@@H](CC[C@@H]3[C@@H]2CC[C@]2(C)[C@@H](C(=O)Cn4ncc5ncccc54)CC[C@@H]32)C1 [SB-54] | 100 to 500
31 | C[C@@]1(O)CC[C@H]2[C@H](CC[C@@H]3[C@@H]2CC[C@]2(C)[C@@H](C(=O)Cn4nc(Cl)c5ccccc54)CC[C@@H]32)C1 [SA-55] | 100 to 500
32 | COc1ccc2nn(CC(=O)[C@H]3CC[C@H]4[C@@H]5CC[C@@H]6C[C@](C)(O)CC[C@@H]6[C@H]5CC[C@]34C)nc2c1 [SA-47] | > 500
33 | C[C@@]1(O)CC[C@H]2[C@H](CC[C@@H]3[C@@H]2CC[C@]2(C)[C@@H](C(=O)Cn4cc5cc(C#N)ccc5n4)CC[C@@H]32)C1 [SA-37] | > 500
34 | COC[C@@]1(O)CC[C@H]2[C@H](CC[C@@H]3[C@@H]2CC[C@]2(C)[C@@H](C(=O)Cn4cc5ccncc5n4)CC[C@@H]32)C1 [SA-118] | > 500
35 | CCOC[C@@]1(O)CC[C@H]2[C@@H](CC[C@@H]3[C@@H]2CC[C@]2(C)[C@@H](C(=O)Cn4nnc5ccccc54)CC[C@@H]32)C1 [SB-52] | 100 to 500
36 | CC[C@@]1(O)CC[C@H]2[C@@H](CC[C@@H]3[C@@H]2CC[C@]2(C)[C@@H](C(=O)Cn4ncc5ccncc54)CC[C@@H]32)C1 [SB-32] | 100 to 500
37 | COC[C@@]1(O)CC[C@H]2[C@H](CC[C@@H]3[C@@H]2CC[C@]2(C)[C@@H](C(=O)Cn4ncc5ccncc54)CC[C@@H]32)C1 [SA-119] | > 500
38 | C[C@]12CC[C@H]3[C@@H](CC[C@@H]4C[C@@](O)(C(F)F)CC[C@@H]43)[C@@H]1CC[C@@H]2C(=O)Cn1nnc2ccccc21 [SA-90] | 10 to 100
39 | CC[C@@]1(O)CC[C@H]2[C@@H](CC[C@@H]3[C@@H]2CC[C@]2(C)[C@@H](C(=O)Cn4nc5ccncc5n4)CC[C@@H]32)C1 [SB-34] | > 500

Same assay, conditions: LTK; potentiation of GABA EC20 (2 μM) current; read-out: GABAa alpha1 (α1β2γ2) Emax (%)

Row | SMILES | Emax [%]
40 | C[C@@]1(O)CC[C@H]2[C@H](CC[C@@H]3[C@@H]2CC[C@]2(C)[C@@H](C(=O)Cn4ncc5ccccc54)CC[C@@H]32)C1 [SA-5] | 500 to 1000
41 | C[C@@]1(O)CC[C@H]2[C@H](CC[C@@H]3[C@@H]2CC[C@]2(C)[C@@H](C(=O)Cn4nnc5ccccc54)CC[C@@H]32)C1 [SA-1] | 500 to 1000
42 | C[C@@]1(O)CC[C@H]2[C@H](CC[C@@H]3[C@@H]2CC[C@]2(C)[C@@H](C(=O)Cn4ncc5ncccc54)CC[C@@H]32)C1 [SA-3] | 500 to 1000

Same assay, conditions: potentiation of GABA EC20 (2 μM) current; read-out: GABAa alpha1 (α1β2γ2)EC50

Row | SMILES | EC50 [µM]
43 | C[C@@]1(O)CC[C@H]2[C@H](CC[C@@H]3[C@@H]2CC[C@]2(C)[C@@H](C(=O)Cn4ncc5ccccc54)CC[C@@H]32)C1 [SA-5] | 1 to 2
44 | C[C@@]1(O)CC[C@H]2[C@H](CC[C@@H]3[C@@H]2CC[C@]2(C)[C@@H](C(=O)Cn4nnc5ccccc54)CC[C@@H]32)C1 [SA-1] | 0.5 to 1
45 | C[C@@]1(O)CC[C@H]2[C@H](CC[C@@H]3[C@@H]2CC[C@]2(C)[C@@H](C(=O)Cn4ncc5ncccc54)CC[C@@H]32)C1 [SA-3] | 1 to 2
